# Measured values published in patent US4558122A, “Stable s-adenosylmethionine derivatives, the process for their preparation, and therapeutic compositions which contain them as active principle” (Bioresearch S.P.A., priority 1981, dated 1985).
# Like-named read-outs stand apart in the source and are kept apart here.
# Key:
# physchem = type: physicochemical; conditions: water
# [1] = absorption "in situ" (intestinal sacs); type: in vivo, rat; conditions: rat, in situ intestinal sacs, 2 mg in 1 ml physiological solution, rats, H2 SO4 salts, m 0 or 1, n 3, read-out: PRODUCT ABSORPTION in sacs
# Experimental: (§1) In the 1st test, known as "in situ" (intestinal sacs), 2 mg of each product to be tested in 1 ml of physiological solution were placed in intestinal sacs provided in rats under ether anesthesia. The rats were killed after 2 hours, and the residual content of the sac (wall+content) was analysed. In the 2nd test, portions of intestine turned inside out were used, incubated at 37° C. in accordance with Krebs Ringer against an external product concentration of 10^-4 M. The products were all salified with H2 SO4 to give salts in which m was 0 or 1 and n was 3.
# [2] = tested on: portions of intestine turned inside out; test: absorption by portions of intestine turned inside out; type: in vitro ADME
# Experimental: In the 2nd test, portions of intestine turned inside out were used, incubated at 37° C. in accordance with Krebs Ringer against an external product concentration of 10^-4 M. The products were all salified with H2 SO4 to give salts in which m was 0 or 1 and n was 3.
# [3] = stability in the dry state at 45° C.; type: physicochemical
# intestinal sacs = test: absorption "in situ" (intestinal sacs); type: in vivo, rat; conditions: 2 mg in 1 ml physiological solution, rats, 2 hours; H2 SO4 salts, m 0 or 1, n 3
# Experimental: as §1
# [4] = 37° C., Krebs Ringer, external concentration 10^-4 M, H2 SO4 salts, m 0 or 1, n 3
# [5] = 45° C., 60 days, read-out: Degradation at 45° C. after 60 days
# [6] = 45° C., 120 days, read-out: Degradation at 45° C. after 120 days
# [7] = 45° C., 180 days, read-out: Degradation at 45° C. after 180 days
# [8] = 45° C., 240 days, read-out: Degradation at 45° C. after 240 days
# [9] = 45° C., 360 days, read-out: Degradation at 45° C. after 360 days
molecule,measurement,setting,value
"CCOC(=O)[C@@H](N)CC[S+](C)C[C@H]1O[C@@H](n2cnc3c(N)ncnc32)[C@H](O)[C@@H]1O (some centres unmarked) [C2 H5, SAM ethyl ester]",degraded at 0.25 h,physchem; pH 2,2%
same,degraded at 0.5 h,physchem; pH 2,4%
same,degraded at 1 h,physchem; pH 2,8%
same,degraded at 4 h,physchem; pH 2,35%
same,degraded at 0.25 h,physchem; pH 3,3%
same,degraded at 0.5 h,physchem; pH 3,6%
same,degraded at 1 h,physchem; pH 3,13%
same,degraded at 4 h,physchem; pH 3,55%
same,degraded at 0.25 h,physchem; pH 4,5%
same,degraded at 0.5 h,physchem; pH 4,9%
same,degraded at 1 h,physchem; pH 4,19%
same,degraded at 4 h,physchem; pH 4,80%
same,Fa at 2 h,[1],59%
same,PRODUCT ABSORPTION intestine inside out,[2]; [4],0.061 nmoles/h/mg tissue
"CCCOC(=O)[C@@H](N)CC[S+](C)C[C@H]1O[C@@H](n2cnc3c(N)ncnc32)[C@H](O)[C@@H]1O (some centres unmarked) [C3 H7 H H, SAM n-propyl ester]",Fa at 2 h,[1],61%
same,PRODUCT ABSORPTION intestine inside out,[2]; [4],0.045 nmoles/h/mg tissue
"CCCCOC(=O)[C@@H](N)CC[S+](C)C[C@H]1O[C@@H](n2cnc3c(N)ncnc32)[C@H](O)[C@@H]1O (some centres unmarked) [C4 H9, SAM n-butyl ester]",degraded at 0.25 h,physchem; pH 2,2%
same,degraded at 0.5 h,physchem; pH 2,4%
same,degraded at 1 h,physchem; pH 2,8%
same,degraded at 4 h,physchem; pH 2,30%
same,degraded at 0.25 h,physchem; pH 3,3%
same,degraded at 0.5 h,physchem; pH 3,6%
same,degraded at 1 h,physchem; pH 3,12%
same,degraded at 4 h,physchem; pH 3,52%
same,degraded at 0.25 h,physchem; pH 4,4%
same,degraded at 0.5 h,physchem; pH 4,9%
same,degraded at 1 h,physchem; pH 4,17%
same,degraded at 4 h,physchem; pH 4,75%
same,Fa at 2 h,[1],65%
same,PRODUCT ABSORPTION intestine inside out,[2]; [4],0.037 nmoles/h/mg tissue
"CCCCCOC(=O)[C@@H](N)CC[S+](C)C[C@H]1O[C@@H](n2cnc3c(N)ncnc32)[C@H](O)[C@@H]1O (some centres unmarked) [C5 H11 H H, SAM n-pentyl ester]",Fa at 2 h,[1],68%
same,PRODUCT ABSORPTION intestine inside out,[2]; [4],0.025 nmoles/h/mg tissue
"CCCCCCOC(=O)[C@@H](N)CC[S+](C)C[C@H]1O[C@@H](n2cnc3c(N)ncnc32)[C@H](O)[C@@H]1O (some centres unmarked) [C6 H13 H H, SAM n-hexyl ester]",Fa at 2 h,[1],67%
same,PRODUCT ABSORPTION intestine inside out,[2]; [4],0.023 nmoles/h/mg tissue
"COC(=O)[C@@H](N)CC[S+](C)C[C@H]1O[C@@H](n2cnc3c(N)ncnc32)[C@H](O)[C@@H]1O (some centres unmarked) [CH3, SAM methyl ester]",degraded at 0.25 h,physchem; pH 2,5%
same,degraded at 0.5 h,physchem; pH 2,10%
same,degraded at 1 h,physchem; pH 2,21%
same,degraded at 4 h,physchem; pH 2,75%
same,degraded at 0.25 h,physchem; pH 3,6%
same,degraded at 0.5 h,physchem; pH 3,13%
same,degraded at 1 h,physchem; pH 3,25%
same,degraded at 4 h,physchem; pH 3,100%
same,degraded at 0.25 h,physchem; pH 4,8%
same,degraded at 0.5 h,physchem; pH 4,18%
same,degraded at 1 h,physchem; pH 4,40%
same,degraded at 4 h,physchem; pH 4,100%
same,Fa at 2 h,[1],55%
same,PRODUCT ABSORPTION intestine inside out,[2]; [4],0.078 nmoles/h/mg tissue
CCCCC(=O)N[C@@H](CC[S+](C)C[C@H]1O[C@@H](n2cnc3c(N)ncnc32)[C@H](OC(=O)CCCC)[C@@H]1OC(=O)CCCC)C(=O)[O-] (some centres unmarked) [H COC4 H9 COC4 H9],Fa at 2 h,[1],87%
same,PRODUCT ABSORPTION intestine inside out,[2]; [4],0.031 nmoles/h/mg tissue
CCCCC(=O)N[C@@H](CC[S+](C)C[C@H]1O[C@@H](n2cnc3c(N)ncnc32)[C@H](O)[C@@H]1O)C(=O)[O-] (some centres unmarked) [H COC4 H9 H],Fa at 2 h,[1],18%
same,PRODUCT ABSORPTION intestine inside out,[2]; [4],0.028 nmoles/h/mg tissue
"C[S+](CC[C@H](NC(=O)c1ccccc1)C(=O)[O-])C[C@H]1O[C@@H](n2cnc3c(N)ncnc32)[C@H](O)[C@@H]1O (some centres unmarked) [H COC6 H5 H, SAM benzoyl]",Fa at 2 h,[1],12%
same,PRODUCT ABSORPTION intestine inside out,[2]; [4],0.017 nmoles/h/mg tissue
"CC(=O)N[C@@H](CC[S+](C)C[C@H]1O[C@@H](n2cnc3c(N)ncnc32)[C@H](OC(C)=O)[C@@H]1OC(C)=O)C(=O)[O-] (some centres unmarked) [H COCH3 COCH3, SAM triacetyl]",Fa at 2 h,[1],65%
same,PRODUCT ABSORPTION intestine inside out,[2]; [4],0.047 nmoles/h/mg tissue
"CC(=O)N[C@@H](CC[S+](C)C[C@H]1O[C@@H](n2cnc3c(N)ncnc32)[C@H](O)[C@@H]1O)C(=O)[O-] (some centres unmarked) [H COCH3 H, SAM monoacetyl]",Fa at 2 h,[1],10%
same,PRODUCT ABSORPTION intestine inside out,[2]; [4],0.046 nmoles/h/mg tissue
"C[S+](CC[C@H](NC(=O)CCCC(=O)O)C(=O)[O-])C[C@H]1O[C@@H](n2cnc3c(N)ncnc32)[C@H](O)[C@@H]1O (some centres unmarked) [H Glutaryl H, SAM glutaryl]",Fa at 2 h,[1],23%
same,PRODUCT ABSORPTION intestine inside out,[2]; [4],0.018 nmoles/h/mg tissue
"CC(=O)O[C@@H]1[C@H](OC(C)=O)[C@@H](C[S+](C)CC[C@H](NC(=O)CCC(=O)O)C(=O)[O-])O[C@H]1n1cnc2c(N)ncnc21 (some centres unmarked) [H Succinyl COCH3, SAM succinyl-diacetyl]",Fa at 2 h,[1],91%
same,PRODUCT ABSORPTION intestine inside out,[2]; [4],0.035 nmoles/h/mg tissue
"C[S+](CC[C@H](NC(=O)CCC(=O)O)C(=O)[O-])C[C@H]1O[C@@H](n2cnc3c(N)ncnc32)[C@H](O)[C@@H]1O (some centres unmarked) [H Succinyl H, SAM succinyl]",Fa at 2 h,[1],25%
same,PRODUCT ABSORPTION intestine inside out,[2]; [4],0.016 nmoles/h/mg tissue
"Cc1ccc(S(=O)(=O)N[C@@H](CC[S+](C)C[C@H]2O[C@@H](n3cnc4c(N)ncnc43)[C@H](O)[C@@H]2O)C(=O)[O-])cc1 (some centres unmarked) [H p.tol. sulphon. H, SAM p-toluenesulphonyl]",Fa at 2 h,[1],13%
same,PRODUCT ABSORPTION intestine inside out,[2]; [4],0.021 nmoles/h/mg tissue
"C[S+](CC[C@H](N)C(=O)[O-])C[C@H]1O[C@@H](n2cnc3c(N)ncnc32)[C@H](O)[C@@H]1O (some centres unmarked) [H, S-adenosylmethionine]",degraded at 0.25 h,physchem; pH 2,80%
same,degraded at 0.5 h,physchem; pH 2,100%
same,degraded at 1 h,physchem; pH 2,100%
same,degraded at 4 h,physchem; pH 2,100%
same,degraded at 0.25 h,physchem; pH 3,90%
same,degraded at 0.5 h,physchem; pH 3,100%
same,degraded at 1 h,physchem; pH 3,100%
same,degraded at 4 h,physchem; pH 3,100%
same,degraded at 0.25 h,physchem; pH 4,100%
same,degraded at 0.5 h,physchem; pH 4,100%
same,degraded at 1 h,physchem; pH 4,100%
same,degraded at 4 h,physchem; pH 4,100%
same,PRODUCT ABSORPTION intestine inside out,[2],0.009 nmoles/h/mg tissue
"CC(=O)N[C@@H](CC[S+](C)C[C@H]1O[C@@H](n2cnc3c(N)ncnc32)[C@H](O)[C@@H]1O)C(=O)[O-] (some centres unmarked) [SAM monoacetyl. 2 H2 SO4, SAM monoacetyl]",degraded at 1440 h,[3]; [5],0%
same,degraded at 2880 h,[3]; [6],1.4%
same,degraded at 4320 h,[3]; [7],3%
same,degraded at 5760 h,[3]; [8],4.6%
same,degraded at 8640 h,[3]; [9],5.5%
"CC(=O)N[C@@H](CC[S+](C)C[C@H]1O[C@@H](n2cnc3c(N)ncnc32)[C@H](OC(C)=O)[C@@H]1OC(C)=O)C(=O)[O-] (some centres unmarked) [SAM triacetyl. 2 H2 SO4, SAM triacetyl]",degraded at 1440 h,[3]; [5],1%
same,degraded at 2880 h,[3]; [6],1.9%
same,degraded at 4320 h,[3]; [7],4.1%
same,degraded at 5760 h,[3]; [8],5.9%
same,degraded at 8640 h,[3]; [9],8%
"C[S+](CC[C@H](N)C(=O)[O-])C[C@H]1O[C@@H](n2cnc3c(N)ncnc32)[C@H](O)[C@@H]1O (some centres unmarked) [SAM. H2 SO4, S-adenosylmethionine]",degraded at 1440 h,[3],80%
same,degraded at 2880 h,[3],100%
same,degraded at 4320 h,[3],100%
same,degraded at 5760 h,[3],100%
same,degraded at 8640 h,[3],100%
SAM n-dodecyl [H Dodecyl H],PRODUCT ABSORPTION in sacs,intestinal sacs,65 % of dose
same,PRODUCT ABSORPTION intestine inside out,[2]; [4],0.019 nmoles/h/mg tissue
SAM n-octyl [H Octyl H],PRODUCT ABSORPTION in sacs,intestinal sacs,62 % of dose
same,PRODUCT ABSORPTION intestine inside out,[2]; [4],0.023 nmoles/h/mg tissue
